Measured values: article PMC9694130, “Design, Preparation, Characterization and Evaluation of Five Cocrystal Hydrates of Fluconazole with Hydroxybenzoic Acids” (Pharmaceutics, 2022)

Legend:
[1] = cited from earlier work; for aqueous solubility of CCFs in water: water at 25 °C, no reference given
[2] = Accelerated stability test (PXRD); type: physicochemical; conditions: for stability under high temperature: high temperature (60 ± 1 °C), phase changes reported after 5 days
Description: Approximately 50 mg of powdered samples were stored under the three test conditions and measured at regular time intervals (0, 5, and 10 days) by PXRD.

[3] = Apparent powder dissolution in ultrapure water; type: physicochemical; conditions: 37 °C, 100 rpm, rank among the three cocrystal hydrates
Description: Sampling was conducted by withdrawing 1 mL aliquot of the sample at time intervals of 5, 10, 15, 20, 30, 45, 60, 90, and 120 min from the vessel and filtered through a 0.45 μm syringe tip filter, and the aliquots were assayed on a high-performance liquid chromatography (HPLC) system. The measurements of the powder dissolution rate were repeated in triplicate.
(§1) The HPLC (Agilent Technologies, Santa Clara, USA) system was equipped with a UV detector and an Agilent Eclipse XDB−C18 (250 mm × 4.6 mm, 5 μm) column with the temperature set to 30 °C. The mobile phase consisted of acetonitrile and water (25:75, v:v) with a flow rate of 1.0 mL min^−1. The injection volume was 10 μL and the detection wavelength was set to 261 nm.

[4] = Intrinsic dissolution rate (IDR) in ultrapure water; type: physicochemical; conditions: 37 °C; for order of intrinsic dissolution rate: ultrapure water, 100 rpm, rank among the three cocrystal hydrates
Description: The resulting disk has a flat surface of 0.5 cm^2. Then, the disk was dipped into a vessel containing 900 mL ultrapure water at 37 ± 0.2 °C, with the paddle rotating at 100 rpm. At time intervals (60, 75, 90, 120, 150, 180, 210, 240, 270, and 300 min), 1 mL of the dissolution medium was withdrawn manually. After filtration through a 0.45 μm syringe tip filter, the aliquots were assayed on an HPLC system. Each experiment was repeated in triplicate.
as §1

SMILES	aqueous solubility of CCFs in water [1] [mg/mL]	stability under high temperature ([2]; PXRD at 0, 5 and 10 days)	order of apparent dissolution rate [3]	order of intrinsic dissolution rate [4]	other results
O=C(O)c1ccc(O)cc1O [24DHB, 2,4-dihydroxybenzoic acid]	8	–	–	–	–
O=C(O)c1cc(O)cc(O)c1 [35DHB, 3,5-dihydroxybenzoic acid]	84	–	–	–	–
O.OC(Cn1cncn1)(Cn1cncn1)c1ccc(F)cc1F [FLZ monohydrate, reference compound]	–	converted to FLZ form II	–	–	–
O.O=C(O)c1ccc(O)c(O)c1.OC(Cn1cncn1)(Cn1cncn1)c1ccc(F)cc1F [FLZ−34DHB−H2O (1:1:1)]	–	stable	FLZ−35DHB−H2O (1:1:1) > FLZ−34DHB−H2O (1:1:1) > FLZ−24DHB−H2O (1:0.5:1)	FLZ−35DHB−H2O (1:1:1) > FLZ−34DHB−H2O (1:1:1) > FLZ−24DHB−H2O (1:0.5:1)	hygroscopicity relative to FLZ ([2]; compared with commercialized FLZ form II): significantly reduces hygroscopicity; stability under high humidity ([2]; high humidity (90 ± 5%, 25 °C), PXRD at 0, 5 and 10 days): stable; stability under illumination ([2]; illumination (4500 ± 500 lx, 25 °C), PXRD at 0, 5 and 10 days): stable
O=C(O)c1ccc(O)c(O)c1 [34DHB, 3,4-dihydroxybenzoic acid]	29	–	–	–	–
O.O=C(O)c1cc(O)cc(O)c1.OC(Cn1cncn1)(Cn1cncn1)c1ccc(F)cc1F [FLZ−35DHB−H2O (1:1:1)]	–	forming an anhydrous form	FLZ−35DHB−H2O (1:1:1) > FLZ−34DHB−H2O (1:1:1) > FLZ−24DHB−H2O (1:0.5:1)	FLZ−35DHB−H2O (1:1:1) > FLZ−34DHB−H2O (1:1:1) > FLZ−24DHB−H2O (1:0.5:1)	IDR compared with FLZ form II ([4]; ultrapure water 900 mL, paddle 100 rpm, disk 0.5 cm^2): higher IDR
O.O.O=C(O)c1ccc(O)cc1O.OC(Cn1cncn1)(Cn1cncn1)c1ccc(F)cc1F.OC(Cn1cncn1)(Cn1cncn1)c1ccc(F)cc1F [FLZ−24DHB−H2O (1:0.5:1)]	–	converted to the physical mixture of amorphous and crystalline phases	FLZ−35DHB−H2O (1:1:1) > FLZ−34DHB−H2O (1:1:1) > FLZ−24DHB−H2O (1:0.5:1)	FLZ−35DHB−H2O (1:1:1) > FLZ−34DHB−H2O (1:1:1) > FLZ−24DHB−H2O (1:0.5:1)	–
O.O.O=C(O)c1ccc(O)c(O)c1.OC(Cn1cncn1)(Cn1cncn1)c1ccc(F)cc1F.OC(Cn1cncn1)(Cn1cncn1)c1ccc(F)cc1F [FLZ−34DHB−H2O (1:0.5:1)]	–	converted to the physical mixture of amorphous and crystalline phases	–	–	–
OC(Cn1cncn1)(Cn1cncn1)c1ccc(F)cc1F [FLZ, 2-(2,4-difluorophenyl)-1,3-di(1H-1,2,4-triazol-1-yl)propan-2-ol, reference compound]	–	–	–	–	aqueous solubility ([1]; FLZ form II): 2 to 8 mg/mL
